The nature of data set [1]: Human plasma half-life assay. The class given is in vitro ADME. The conditions noted are these: human plasma, 37° C., LC-MS; for half-life at 0.1 mg/ml: read-out: Human Plasma T½ (converted). The procedure: (§1) B. Human and Rat Plasma Half-Life Assay
(§2) 50 μL was removed at various times, like at 0, 1, 2, 3, 4, 8, 24, 32, 48, 56, 72 hours, mixed with 5 μL formic acid and 150 μL acetonitrile in a microcentrifuge tube, vertexed, and centrifuged for 10 minutes at 10K rpm. The supernatant was transferred to an injection vial and analyzed by LC-MS. The LC-MS system consisted of an API4000 mass spectrometer with an ESI probe. Positive ion mode and full scan detection were used. HPLC separation was carried out on a Luna 3μ C8 (2), 2×30 mm column with a gradient from 90% A to 90% B in 10 minutes at a flow rate of 0.3 ml/min. Buffer A was 1% formic acid in water and buffer B was 1% formic acid acetonitrile.

A short description of data set [2]: Rat plasma half-life assay. The data set is classed as in vitro ADME. The conditions noted are these: rat plasma, 37° C., LC-MS; for half-life at 0.1 mg/ml: read-out: Rat Plasma T½ (converted). The procedure: as §1, §2

The structures appear in SMILES notation. Where a SMILES comes first, the peptide text is derived from it. [ ]: non-standard residue; d: D form. Nle = CCCC[C@H](N)C(=O)O; Ac5c = NC1(C(=O)O)CCCC1; Aib = CC(C)(N)C(=O)O

With `CC[C@H](C)[C@H](NC(=O)[C@H](CCCCN)NC(=O)[C@H](CC(=O)O)NC(=O)[C@H](CCSC)NC(=O)C(C)(C)NC(=O)[C@@H](NC(=O)[C@H](CO)NC(=O)[C@H](Cc1ccc(O)cc1)NC(=O)[C@H](CC(=O)O)NC(=O)[C@H](CO)NC(=O)[C@@H](NC(=O)[C@H](Cc1ccccc1)NC(=O)[C@@H](NC(=O)CNC(=O)[C@H](CCC(=O)O)NC(=O)C(C)(C)NC(=O)[C@@H](N)Cc1ccc(O)cc1)[C@@H](C)O)[C@@H](C)CC)[C@@H](C)CC)C(=O)N[C@@H](Cc1c[nH]cn1)C(=O)N[C@@H](CCC(N)=O)C(=O)N[C@@H](CCC(N)=O)C(=O)N[C@@H](CC(=O)O)C(=O)N[C@@H](Cc1ccccc1)C(=O)N[C@H](C(=O)N[C@@H](CC(N)=O)C(=O)N[C@@H](Cc1c[nH]c2ccccc12)C(=O)N[C@@H](CC(C)C)C(=O)N[C@@H](CC(C)C)C(=O)N[C@@H](C)C(=O)N[C@@H](CCC(N)=O)C(=O)N[C@@H](CCCCN)C(N)=O)C(C)C` [Example 47, (Aib^2, 13)hGIP(1-30)-NH2] (H-Y[Aib]EGTFISDYSI[Aib]MDKIHQQDFVNWLLAQK-NH2; N-terminus assumed), the half-life at 0.1 mg/ml in data set [1] is 45.3 h; in data set [2] it was 30.8 h.

Turning to `CC[C@H](C)[C@H](NC(=O)[C@H](CCCCN)NC(=O)[C@H](CC(=O)O)NC(=O)C1(NC(=O)[C@H](C)NC(=O)[C@@H](NC(=O)C2(NC(=O)[C@H](Cc3ccc(O)cc3)NC(=O)[C@H](CC(=O)O)NC(=O)[C@H](CO)NC(=O)[C@@H](NC(=O)[C@H](Cc3ccccc3)NC(=O)[C@@H](NC(=O)CNC(=O)[C@H](CCC(=O)O)NC(=O)C(C)(C)NC(=O)[C@@H](N)Cc3ccc(O)cc3)[C@@H](C)O)[C@@H](C)CC)CCCC2)[C@@H](C)CC)CCCCC1)C(=O)N[C@@H](Cc1c[nH]cn1)C(=O)N[C@@H](CCC(N)=O)C(=O)N[C@@H](CCC(N)=O)C(=O)N[C@@H](CC(=O)O)C(=O)N[C@@H](Cc1ccccc1)C(=O)N[C@H](C(=O)N[C@@H](CC(N)=O)C(=O)N[C@@H](Cc1c[nH]c2ccccc12)C(=O)N[C@@H](CC(C)C)C(=O)N[C@@H](CC(C)C)C(=O)N[C@@H](C)C(=O)N[C@@H](CCC(N)=O)C(=O)N[C@@H](CCCCN)C(N)=O)C(C)C` [Example 48, (Aib^2, A5c^11, A6c^14)hGIP(1-30)-NH2], the half-life at 0.1 mg/ml in data set [1] is greater than 56 h; in data set [2] it was greater than 54 h.

Take `CCCC[C@H](NC(=O)C(C)(C)NC(=O)[C@@H](NC(=O)[C@H](CO)NC(=O)[C@H](Cc1ccc(O)cc1)NC(=O)[C@H](CC(=O)O)NC(=O)[C@H](CO)NC(=O)[C@@H](NC(=O)[C@H](Cc1ccccc1)NC(=O)[C@@H](NC(=O)CNC(=O)[C@H](CCC(=O)O)NC(=O)C(C)(C)NC(=O)[C@@H](N)Cc1ccc(O)cc1)[C@@H](C)O)[C@@H](C)CC)[C@@H](C)CC)C(=O)N[C@@H](CC(=O)O)C(=O)N[C@@H](CCCCN)C(=O)N[C@H](C(=O)N[C@@H](Cc1c[nH]cn1)C(=O)N[C@@H](CCC(N)=O)C(=O)N[C@@H](CCC(N)=O)C(=O)N[C@@H](CC(=O)O)C(=O)N[C@@H](Cc1ccccc1)C(=O)N[C@H](C(=O)N[C@@H](CC(N)=O)C(=O)N[C@@H](Cc1c[nH]c2ccccc12)C(=O)N[C@@H](CC(C)C)C(=O)N[C@@H](CC(C)C)C(=O)N[C@@H](C)C(=O)N[C@@H](CCC(N)=O)C(=O)N[C@@H](CCCCN)C(N)=O)C(C)C)[C@@H](C)CC` [Example 49, (Aib^2, 13, Nle^14)hGIP(1-30)-NH2] (H-Y[Aib]EGTFISDYSI[Aib][Nle]DKIHQQDFVNWLLAQK-NH2; N-terminus assumed): the “Human Plasma T½” value in data set [1] was greater than 56 h. Moreover, the “Rat Plasma T½” value in data set [2] was 45.0 h.

Consider `CCCC[C@H](NC(=O)[C@H](C)NC(=O)[C@@H](NC(=O)C1(NC(=O)[C@H](Cc2ccc(O)cc2)NC(=O)[C@H](CC(=O)O)NC(=O)[C@H](CO)NC(=O)[C@@H](NC(=O)[C@H](Cc2ccccc2)NC(=O)[C@@H](NC(=O)CNC(=O)[C@H](CCC(=O)O)NC(=O)C(C)(C)NC(=O)[C@@H](N)Cc2ccc(O)cc2)[C@@H](C)O)[C@@H](C)CC)CCCC1)[C@@H](C)CC)C(=O)N[C@@H](CC(=O)O)C(=O)N[C@@H](CCCCN)C(=O)N[C@H](C(=O)N[C@@H](Cc1c[nH]cn1)C(=O)N[C@@H](CCC(N)=O)C(=O)N[C@@H](CCC(N)=O)C(=O)N[C@@H](CC(=O)O)C(=O)N[C@@H](Cc1ccccc1)C(=O)N[C@H](C(=O)N[C@@H](CC(N)=O)C(=O)N[C@@H](Cc1c[nH]c2ccccc12)C(=O)N[C@@H](CC(C)C)C(=O)N[C@@H](CC(C)C)C(=O)N[C@@H](C)C(=O)N[C@@H](CCC(N)=O)C(=O)N[C@@H](CCCCN)C(N)=O)C(C)C)[C@@H](C)CC` [Example 50, (Aib^2, A5c^11, Nle^14)hGIP(1-30)-NH2] (H-Y[Aib]EGTFISDY[Ac5c]IA[Nle]DKIHQQDFVNWLLAQK-NH2; N-terminus assumed), for which the “Human Plasma T½” value in data set [1] was found to be 48.1 h. Besides, the “Rat Plasma T½” value in data set [2] was greater than 54 h.

For `CC[C@H](C)[C@H](NC(=O)[C@H](CO)NC(=O)[C@H](Cc1ccc(O)cc1)NC(=O)[C@H](CC(=O)O)NC(=O)[C@H](CO)NC(=O)C1(NC(=O)[C@H](Cc2ccccc2)NC(=O)[C@@H](NC(=O)CNC(=O)[C@H](CCC(=O)O)NC(=O)C(C)(C)NC(=O)[C@@H](N)Cc2ccc(O)cc2)[C@@H](C)O)CCCCC1)C(=O)N[C@@H](C)C(=O)NC1(C(=O)N[C@@H](CC(=O)O)C(=O)N[C@@H](CCCCN)C(=O)N[C@H](C(=O)N[C@@H](Cc2c[nH]cn2)C(=O)N[C@@H](CCC(N)=O)C(=O)N[C@@H](CCC(N)=O)C(=O)N[C@@H](CC(=O)O)C(=O)N[C@@H](Cc2ccccc2)C(=O)N[C@H](C(=O)N[C@@H](CC(N)=O)C(=O)N[C@@H](Cc2c[nH]c3ccccc23)C(=O)N[C@@H](CC(C)C)C(=O)N[C@@H](CC(C)C)C(=O)N[C@@H](C)C(=O)N[C@@H](CCC(N)=O)C(=O)N[C@@H](CCCCN)C(=O)NCC(=O)N[C@@H](CCCCN)C(=O)N[C@@H](CCCCN)C(=O)N[C@@H](CC(N)=O)C(=O)N[C@@H](CC(=O)O)C(=O)N[C@@H](Cc2c[nH]c3ccccc23)C(=O)N[C@@H](CCCCN)C(=O)N[C@@H](Cc2c[nH]cn2)C(=O)N[C@@H](CC(N)=O)C(=O)N[C@H](C(=O)N[C@H](C(=O)N[C@@H](CCC(N)=O)C(=O)O)[C@@H](C)O)[C@@H](C)CC)C(C)C)[C@@H](C)CC)CCCCC1` [Example 51, (Aib^2, A6c^7, 14)hGIP(1-42)-OH], the results for the half-life at 0.1 mg/ml in data set [1] and in data set [2] were 33.8 h and 12.7 h, respectively.

For `CC[C@H](C)[C@H](NC(=O)[C@H](CO)NC(=O)[C@H](Cc1ccc(O)cc1)NC(=O)[C@H](CC(=O)O)NC(=O)[C@H](CO)NC(=O)C1(NC(=O)[C@H](Cc2ccccc2)NC(=O)[C@@H](NC(=O)CNC(=O)[C@H](CCC(=O)O)NC(=O)C(C)(C)NC(=O)[C@@H](N)Cc2ccc(O)cc2)[C@@H](C)O)CCCCC1)C(=O)N[C@@H](C)C(=O)N[C@@H](CCSC)C(=O)N[C@@H](CC(=O)O)C(=O)N[C@@H](CCCCN)C(=O)N[C@H](C(=O)N[C@@H](Cc1c[nH]cn1)C(=O)N[C@@H](CCC(N)=O)C(=O)N[C@@H](CCC(N)=O)C(=O)N[C@@H](CC(=O)O)C(=O)N[C@@H](Cc1ccccc1)C(=O)N[C@H](C(=O)N[C@@H](CC(N)=O)C(=O)N[C@@H](Cc1c[nH]c2ccccc12)C(=O)N[C@@H](CC(C)C)C(=O)N[C@@H](CC(C)C)C(=O)N[C@@H](C)C(=O)N[C@@H](CCC(N)=O)C(=O)N[C@@H](CCCCN)C(N)=O)C(C)C)[C@@H](C)CC` [Example 52, (Aib^2, A6c^7)hGIP(1-30)-NH2], the half-life at 0.1 mg/ml in data set [1] was 14 h; in data set [2], 28.2 h.

As for `CCCC[C@H](NC(=O)C(C)(C)NC(=O)[C@@H](NC(=O)[C@H](CO)NC(=O)[C@H](Cc1ccc(O)cc1)NC(=O)[C@H](CC(=O)O)NC(=O)[C@H](CO)NC(=O)[C@@H](NC(=O)[C@H](Cc1ccccc1)NC(=O)[C@@H](NC(=O)CNC(=O)[C@@H]1CC(O)CN1C(=O)[C@H](C)NC(=O)[C@@H](N)Cc1ccc(O)cc1)[C@@H](C)O)[C@@H](C)CC)[C@@H](C)CC)C(=O)N[C@@H](CC(=O)O)C(=O)N[C@@H](CCCCN)C(=O)N[C@H](C(=O)N[C@@H](Cc1c[nH]cn1)C(=O)N[C@@H](CCC(N)=O)C(=O)N[C@@H](CCC(N)=O)C(=O)N[C@@H](CC(=O)O)C(=O)N[C@@H](Cc1ccccc1)C(=O)N[C@H](C(=O)N[C@@H](CC(N)=O)C(=O)N[C@@H](Cc1c[nH]c2ccccc12)C(=O)N[C@@H](CC(C)C)C(=O)N[C@@H](CC(C)C)C(=O)N[C@@H](C)C(=O)N[C@@H](CCC(N)=O)C(=O)N[C@@H](CCCCN)C(=O)NCC(=O)N[C@@H](CCCCN)C(=O)N[C@@H](CCCCN)C(=O)N[C@@H](CC(N)=O)C(=O)N[C@@H](CC(=O)O)C(=O)N[C@@H](Cc1c[nH]c2ccccc12)C(=O)N[C@@H](CCCCN)C(=O)N[C@@H](Cc1c[nH]cn1)C(=O)N[C@@H](CC(N)=O)C(=O)N[C@H](C(=O)N[C@H](C(=O)N[C@@H](CCC(N)=O)C(=O)O)[C@@H](C)O)[C@@H](C)CC)C(C)C)[C@@H](C)CC` (some centres unmarked) [Example 68, (4Hyp^3, Aib^13, Nle^14)hGIP(1-42)-OH], the half-life at 0.1 mg/ml in data set [1] was greater than 48 h; in data set [2], 1.9 h.

These data come from patent US9074014B2 (Ipsen Pharma S.A.S., priority 2008, dated 2015).
